Experimental data: patent publication US20250228915A1, “DISTINCT CD8+ T CELL PROGRAMMING IN THE TUMOR MICROENVIRONMENT CONTRIBUTES TO SEX BIAS IN CANCER” (Ohio State Innovation Foundation, priority 2022, published 2025)

How the values were obtained:
[1] = test system: human Tcf7 promoter in EGFP-C1-AR overexpressing HEK293FT cells; details: AR-transfected HEK293FT, 24 h, 500 ng/mL testosterone or 50 nM DHT; AR dependent (FIG. 7E)
Protocol: WT or mutated human Tcf7 promoter sequence of one kb upstream from its transcriptional start site was cloned into the pMCS-Red Firefly Luciferase vector (Thermo Fisher). Mutants lacked individual (“Mut 1-4”) or all putative AR binding sites. Briefly, 40,000 HEK293FT cells were grown on a 96 well plate at 80% confluence. […] Renilla luciferase gene expression was used to ensure transfection efficiency (Thermo Fisher). Twenty four hours after transfection, cells were treated with 500 ng/ml testosterone or 50 nM DHT for another 24 hours. Cells were then harvested and luciferase activity was analyzed by using Dual-Luciferase Reporter Assay System (Promega).

[2] = test system: AR-overexpressing Jurkat cells; details: 100 nM, prolonged stimulation over 9 days (FIG. 14B)
Protocol: Empty vector and androgen receptor-expressing Jurkat cells were seeded into six well plates (Gibco) at 2×10^5 cells per well and treated with 100 nM testosterone (Sigma) or DHT (Millipore), alongside methanol vehicle control (Thermo Fisher). Every three days, cells were counted using the BioRad TC20 automated cell counter, passaged, and re-stimulated with the same androgen concentrations over a time course of 3, 6, and 9 days.

[3] = test system: MB49 mouse urothelial carcinoma cells; assay: MB49 tumor growth in WT mice under daily vehicle or enzalutamide; assay type: in vivo; details: male WT mice, MB49 subcutaneous; enzalutamide 25 mg/kg daily oral gavage from Day 5 vs vehicle (FIG. 5J)
Protocol: MB49 (a gift from C. Voelkel-Johnson from the Medical University of South Carolina) and BKL171 mouse urothelial carcinoma cells were cultured in Dulbecco's modified Eagle's medium with 10% heat-inactivated fetal bovine serum and 1% penicillin/streptomycin. 5×10^5 tumor cells were resuspended in 100 μL ice cold PBS for subcutaneous injection into the right flank of a mouse. For antibody-mediated T cell depletion experiments, mice were injected intraperitoneally with 200 μg of anti-mouse CD4 (Clone GK1.5, BioXCell) and/or CD8 neutralizing antibodies (Clone 53-6.7, BioXCell), followed by 100 μg thereafter on the indicated days. For experiments involving enzalutamide, mice were treated daily with either vehicle control or enzalutamide (25 mg/kg) in 1% carboxymethylcellulose with 0.1% Tween 80 and 2.5% DMSO through oral gavage starting on Day 5 post MB49 subcutaneous injection. Tumor surface area (width×length mm^2) was measured using an electronic caliper starting on Day 4 post implantation.

[4] = test system: CD8+ T cells (Tcf7, Ar transcripts); assay: qPCR of naïve CD8+ T cells stimulated with testosterone, type I IFN or both; assay type: cell-based, mouse
Protocol: Mouse spleens and tumors were mechanically disrupted, with the latter additionally subjected to digestion with 1 mg/mL Collagenase D (Roche) for 30 min at 37° C. while shaken at 125 rpm. Excess volume of ice-cold PBS with 2% bovine serum albumin was used to inactivate the enzymatic activity. Red Blood Cell Lysis Buffer (BioLegend) was utilized on tissues before they were passed through 70 µm filters to prepare single cell suspensions. For cytokine production experiments, cells were re-stimulated by 50 ng/mL PMA (Sigma), 1 μg/mL Ionomycin (Sigma) and 1× Brefeldin A (BioLegend) in a 48-well plate for 2 hours at 37° C. For in vitro cultures, purified CD8^+ T cells were left untreated or stimulated with 50 ng/mL testosterone (Sigma) and/or 50 U/mL mouse IFN alpha A (PBL Assay Science). Cells were stained at 4° C. with eFluor506 fixable viability dye for 10 minutes (Invitrogen), followed by extracellular surface markers and FcR block concurrently for 30 minutes. All intracellular staining was performed using the Foxp3 transcription factor staining kit (Invitrogen) according to the manufacturer's instructions. […]
RNA was extracted from FACS/MACS-isolated CD8^+ T cells and reverse-transcribed using RNeasy Micro Kit (Qiagen) and SuperScript™ IV VILO™ Master Mix with ezDNase™ Enzyme (ThermoFisher Scientific), respectively. Quantitative PCR was performed with the following primers: […]

Structure (SMILES) | Tcf7 promoter activity (luciferase) [1] | proliferation [2] | tumor growth [3] | Ar expression (qPCR) ([4]; female CD8+ T cells, testosterone (FIG. 7D)) | Tcf7 expression (qPCR) ([4]; male CD8+ T cells, acute testosterone exposure, 6 hours (FIG. 7D))
C[C@]12CCC(=O)C[C@@H]1CC[C@@H]1[C@@H]2CC[C@]2(C)[C@@H](O)CC[C@@H]12 [DHT, dihydrotestosterone] | stimulated | decreased proliferation |  |  | 
CNC(=O)c1ccc(N2C(=S)N(c3ccc(C#N)c(C(F)(F)F)c3)C(=O)C2(C)C)cc1F [enzalutamide] |  |  | partial protection against tumor growth |  | 
C[C@]12CC[C@H]3[C@@H](CCC4=CC(=O)CC[C@@]43C)[C@@H]1CC[C@@H]2O [testosterone] | stimulated | decreased proliferation |  | induction of Ar expression | significantly increased
